Where “and” joins values, the source holds several entries; their conditions need not be identical. Equal entries are not always repeated. Where two headings read alike, the source gives them in different places. Marks after values point to notes of the source that are not given here.
What was measured:
Sphaerotheca fuliginea = experiment: In vivo test on Sphaerotheca fuliginea (cucurbits powdery mildew); settings: dose of 500 ppm; gherkin plants; grading 12 days after contamination
Protocol: In Vivo Test on Sphaerotheca fuliginea (Cucurbits Powdery Mildew)
(§1) The active ingredients tested are prepared by homogenization in a mixture of acetone/tween/DMSO, then diluted with water to obtain the desired active material.
Gherkin plants (Vert petit de Paris variety) in starter cups, sown on a 50/50 peat soil-pozzolana substrate and grown at 20° C./23° C., are treated at the cotyledon Z10 stage by spraying with the aqueous suspension described above. Plants, used as controls, are treated with an aqueous solution not containing the active material.
After 24 hours, the plants are contaminated by spraying them with an aqueous suspension of Sphaerotheca fuliginea spores (100 000 spores per ml). The spores are collected from a contaminated plants. The contaminated gherkin plants are incubated at about 20° C./25° C. and at 60/70% relative humidity.
Grading (% of efficacy) is carried out 12 days after the contamination, in comparison with the control plants.

[1] = pH 2.7; for logP value of the minor isomer (in parenthesis in column Isomer ratio [d]): main value of the example measured by method [b]
Peronospora parasitica = experiment: In vivo test on Peronospora parasitica (crucifer downy mildew); settings: dose of 500 ppm; cabbage plants; grading 5 days after contamination
Protocol: In Vivo Test on Peronospora parasitica (Crucifer Downy Mildew)
The active ingredients tested are prepared by homogenization in a mixture of acetone/Tween/DMSO, then diluted with water to obtain the desired active material concentration.
Cabbage plants (Eminence variety) in starter cups, sown on a 50/50 peat soil-pozzolana substrate and grown at 18-20° C., are treated at the cotyledon stage by spraying with the aqueous suspension described above.
(§2) Plants, used as controls, are treated with an aqueous solution not containing the active material.
After 24 hours, the plants are contaminated by spraying them with an aqueous suspension of Peronospora parasitica spores (50 000 spores per ml). The spores are collected from infected plant.
The contaminated cabbage plants are incubated for 5 days at 20° C., under a humid atmosphere.
Grading is carried out 5 days after the contamination, in comparison with the control plants.

Puccinia recondita = experiment: In vivo test on Puccinia recondita (brown rust); settings: dose of 500 ppm; wheat plants; grading 10 days after contamination
Protocol: In Vivo Test on Puccinia recondita (Brown Rust)
as §1
Wheat plants (Scipion variety) sown on 50/50 peat soil-pozzolana substrate in starter cups and grown at 12° C., are treated at the 1-leaf stage (10 cm tall) by spraying with the aqueous suspension described above.
as §2
After 24 hours, the plants are contaminated by spraying the leaves with an aqueous suspension of Puccinia recondita spores (100,000 spores per ml). The spores are collected from a 10-day-old contaminated wheat and are suspended in water containing 2.5 ml/l of tween 80 10%. The contaminated wheat plants are incubated for 24 hours at 20° C. and at 100% relative humidity, and then for 10 days at 20° C. and at 70% relative humidity.
Grading is carried out 10 days after the contamination, in comparison with the control plants.

Pyrenophora teres = experiment: In vivo test on Pyrenophora teres (barley net blotch); settings: dose of 500 ppm; barley plants; grading 12 days after contamination
In short: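 Scoring is done 12 days after spore spraying (12,000 spores/ml, from 12-day-old culture), relative to water-treated controls. Inoculation follows by 24 h a preventive spray of the aqueous-diluted formulation onto 1-leaf Plaisant barley raised at 12° C.; infection holds 24 h at about 20° C./100% RH, then 12 days at 80% RH.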

Alternaria solani = experiment: Alternaria test (tomato) / protective; format: in vivo; settings: 500 ppm active compound, protective spray, evaluated 7 days after inoculation
In short: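 Efficacy scored 7 days after inoculation, where 100% means no infection and 0% matches the untreated control. Test plants were young tomatoes given a protective spray at the stated rate, compound dissolved in DMF plus emulsifier and diluted with water. Incubation at 20° C, 96% relative humidity.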

[2] = logP by HPLC at pH 2.3 (0.1% phosphoric acid / acetonitrile); format: physicochemical; settings: method [a]: pH 2.3 with 0.1% phosphoric acid and acetonitrile as eluent
Fusarium graminearum = format: cell-based; settings: 50 μM; for % Inhibition of DON/AcDON at 50 μM: 7 days at 28° C.
[3] = logP by HPLC on reversed phase columns, method [a] (pH 2.3); format: physicochemical; settings: for log p: method [a]: pH 2.3, 0.1% phosphoric acid and acetonitrile as eluent, main isomer
Leptosphaeria nodorum = Leptosphaeria nodorum test (wheat) / protective; format: in vivo; settings: 500 ppm active compound, protective spray, evaluated 7-9 days after inoculation
Protocol: Leptosphaeria nodorum Test (Wheat)/Protective
Solvent: 49 parts by weight of N,N-dimethylformamide
Emulsifier: 1 part by weight of alkylaryl polyglycol ether
To produce a suitable preparation of active compound, 1 part by weight of active compound is mixed with the stated amounts of solvent and emulsifier, and the concentrate is diluted with water to the desired concentration.
To test for protective activity, young wheat plants are sprayed with the preparation of active compound at the stated application rate. […] The plants are then placed in a greenhouse at 90% rel. atmospheric humidity and a temperature of 22° C.
Evaluation is carried out 7-9 days after the inoculation. 0% means an efficacy which corresponds to that of the control, whereas an efficacy of 100% means that no infection is observed.

Fusarium proliferatum = experiment: Production of fumonisin FB1 by Fusarium proliferatum (microtiter plate, HPLC-MS/MS and OD620); format: cell-based

Row | SMILES | log p [1] | % Inhibition of fungal growth at 50 μM (Fusarium graminearum) | % Inhibition of DON/AcDON at 50 μM (Fusarium graminearum) | log p [3] | also measured
1 | CC(C)=CCn1cc(-c2ccncc2)c(-c2ccc(Cl)s2)n1 [Example 7] | 2.25^[b] | – | – | – | protection (% of efficacy) (Sphaerotheca fuliginea): 78%
2 | CC(C)CC(C)n1ncc(-c2ccncc2)c1-c1ccc(Cl)s1 (stereo not shown) [Example 14] | 2.42^[b] | – | – | – | protection (% of efficacy) (Sphaerotheca fuliginea): 78%
3 | CC(C)C(C)n1ncc(-c2ccncc2)c1-c1ccc(Cl)s1 (stereo not shown) [Example 20] | 2.1^[b] | – | – | – | protection (Peronospora parasitica): at least 70%
4 | CC#CCn1cc(-c2ccncc2)c(-c2ccc(Cl)s2)n1 [Example 51] | 1.81^[b] | – | – | – | protection (% of efficacy) (Sphaerotheca fuliginea): 100%; protection (Puccinia recondita): 75%; logP value of the minor isomer (in parenthesis in column Isomer ratio [d]) [1]: (1.60)
5 | Clc1ccc(-c2nn(CC3CCCO3)cc2-c2ccncc2)s1 (stereo not shown) [Example 56] | 1.6^[b] | – | – | – | protection (% of efficacy) (Sphaerotheca fuliginea): 88%; logP value of the minor isomer (in parenthesis in column Isomer ratio [d]) [1]: (1.44)
6 | Clc1ccc(-c2nn(CCc3ccccc3)cc2-c2ccncc2)s1 [Example 58] | 2.3^[b] | – | – | – | protection (% of efficacy) (Sphaerotheca fuliginea): 81%
7 | Clc1ccc(-c2nn(CCN3CCOCC3)cc2-c2ccncc2)s1 [Example 60] | 0.52^[b] | – | – | – | protection (Peronospora parasitica): 98%; protection (% of efficacy) (Sphaerotheca fuliginea): 75%
8 | CCOC(=O)Cn1cc(-c2ccncc2)c(-c2ccc(Cl)s2)n1 [Example 63] | 1.67^[b] | – | – | – | protection (Peronospora parasitica): 94%; protection (% of efficacy) (Sphaerotheca fuliginea): 88%
9 | Clc1ccc(-c2nn(C3CC3)cc2-c2ccncc2)s1 [Example 66] | 1.62^[b] | – | – | – | protection (% of efficacy) (Sphaerotheca fuliginea): 95%; protection (Pyrenophora teres): 92%; protection (Puccinia recondita): 89% and 95%
10 | CC(=O)n1cc(-c2ccncc2)c(-c2ccc(Cl)s2)n1 [Example 86] | 2.04^[b] | – | – | – | protection (Peronospora parasitica): 92%; protection (Puccinia recondita): 75%
11 | CCC(C)n1cc(-c2cc[n+]([O-])cc2)c(-c2ccc(Cl)s2)n1 (stereo not shown) [Example 92] | 2.56^[b] | – | – | – | protection (% of efficacy) (Sphaerotheca fuliginea): 100%
12 | CCn1cc(-c2ccnc(N=C(c3ccccc3)c3ccccc3)c2)c(-c2ccc(Cl)s2)n1 [Example 311] | – | – | – | – | efficacy (Alternaria solani): 70%; log p [2]: 3.99^[a]
13 | CC(C)Nc1nccc(-c2c[nH]nc2-c2ccc(Cl)s2)n1 [Example 312] | – | 87% | 99% | – | log p [2]: 1.79^[a]
14 | CC(C)Cn1cc(-c2ccnc(NC(=O)OC(C)C)c2)c(-c2ccc(Cl)s2)n1 [Example 319] | – | – | – | – | log p [2]: 5.15^[a]
15 | CC(C)Cn1cc(-c2ccnc(NC(=O)c3cccs3)c2)c(-c2ccc(Cl)s2)n1 [Example 320] | – | – | – | – | log p [2]: 4.62^[a]
16 | CCNC(=O)Nc1cc(-c2cn(CC(C)C)nc2-c2ccc(Cl)s2)ccn1 [Example 321] | – | 39% | 92% | – | log p [2]: 3.18^[a]
17 | CC(C)Cn1cc(-c2ccnc(NC(=O)C3CCC3)c2)c(-c2ccc(Cl)s2)n1 [Example 361] | – | – | – | – | efficacy (Alternaria solani): 94%; log p [2]: 3.96^[a]
18 | CC(C)Cn1cc(-c2ccnc(NS(C)(=O)=O)c2)c(-c2ccc(Cl)s2)n1 [Example 362] | – | – | – | – | log p [2]: 3.04^[a]

Row | SMILES | log p [1] | % Inhibition of fungal growth at 50 μM (Fusarium graminearum) | % Inhibition of DON/AcDON at 50 μM (Fusarium graminearum) | log p [3] | also measured
19 | CCC(=O)Nc1cc(-c2cn(CC(C)C)nc2-c2ccc(Cl)s2)ccn1 [Example 396] | – | 30% | 100% | 3.33^[a] | efficacy (Alternaria solani): 100%; protection (Pyrenophora teres): 70%
20 | CC(C)Cn1cc(-c2ccnc(NC(=O)C(C)C)c2)c(-c2ccc(Cl)s2)n1 [Example 397] | – | 32% | 97% | 3.83^[a] | efficacy (Alternaria solani): 100%; protection (Pyrenophora teres): 90%
21 | Cc1cn(-c2cc(-c3cn(CC(C)C)nc3-c3ccc(Cl)s3)ccn2)cn1 [Example 399] | – | 0% | 90% | 2.56^[a] | efficacy (Alternaria solani): 78%
22 | CCC(C)n1cc(-c2ccncc2)c(-c2ccc(C(F)(F)F)s2)n1 (stereo not shown) [Example 400] | – | 0% | 99% | 2.58^[a] | –
23 | CC(C)n1cc(-c2ccncc2)c(-c2ccc(C(F)(F)F)s2)n1 [Example 401] | – | 0% | 99% | 2.2^[a] | efficacy (Alternaria solani): 78%
24 | Brc1ccc(-c2n[nH]cc2-c2ccncc2)s1 [Example 408] | – | 0% | 97% | 0.94^[a] | efficacy (Alternaria solani): 70%; efficacy (Leptosphaeria nodorum): 78%
25 | c1cc(-c2c[nH]nc2-c2cc3ccsc3s2)ccn1 [Example 409] | – | – | – | 1.13^[a] | efficacy (Leptosphaeria nodorum): 78%
26 | CC(=O)Nc1nccc(-c2cn(CC(C)C)nc2-c2ccc(Cl)s2)n1 [Example 410] | – | 0% | 83% | 3.04^[a] | efficacy (Leptosphaeria nodorum): 94%
27 | CC(C)Cn1cc(-c2ccnc(NC(C)C)n2)c(-c2ccc(Cl)s2)n1 [Example 411] | – | 98% | 99% | 4.34^[a] | –
28 | CC#Cc1c(-c2ccncc2)c(-c2ccc(Cl)s2)nn1C(C)C [Example 412] | – | 98% | 93% | 2.78^[a] | efficacy (Alternaria solani): 90%; efficacy (Leptosphaeria nodorum): 70%
29 | CC(C)Cn1nc(C2CC2)c(-c2ccncc2)c1-c1ccc(Cl)s1 [Example 413] | – | – | – | 2.61^[a] | efficacy (Leptosphaeria nodorum): 70%
30 | CC(C)Cn1nc(-c2ccc(Cl)s2)c(-c2ccncc2)c1C1CC1 [Example 414] | – | 11% | 84% | 2.7^[a] | –
31 | CCC(C)n1nc(-c2ccc(Cl)s2)c(-c2ccncc2)c1C1CC1 (stereo not shown) [Example 416] | – | 8% | 91% | 2.75^[a] | efficacy (Leptosphaeria nodorum): 70%
32 | CC(C)n1nc(C2CC2)c(-c2ccncc2)c1-c1ccc(Cl)s1 [Example 417] | – | – | – | 2.44^[a] | efficacy (Leptosphaeria nodorum): 80%
33 | CC#Cc1c(-c2ccncc2)c(-c2ccc(Cl)s2)nn1Cc1ccc(OC)cc1 [Example 420] | – | – | – | 3.02^[a] | % inhibition FB1 production at 50 μM (Fusarium proliferatum; 5 days at 20° C., HPLC-MS/MS): 90%; % inhibition fungal growth at 50 μM (Fusarium proliferatum; Fusarium proliferatum, OD620 at start and after 5 days): 21%; logP value of the minor isomer ([3]; minor isomer, in parentheses in the Isomer ratio column, method [a], pH 2.3): (2.53)
34 | CC(C)Cn1cc(-c2ccnc3ccccc23)c(-c2ccc(Cl)s2)n1 [Example 421] | – | – | – | 3.69^[a] | efficacy (Alternaria solani): 89%
35 | CC(C)Cn1cc(-c2cc(N)ncn2)c(-c2ccc(Cl)s2)n1 [Example 423] | – | 91% | 99% | 1.97^[a] | efficacy (Alternaria solani): 94%; efficacy (Leptosphaeria nodorum): 80%; protection (Pyrenophora teres): 75%

— patent publication US8685974B2 (Bayer CropScience AG, priority 2009, dated 2014)
